Experimental data reported in patent publication EP3674287A1, “COCRYSTALS OF (R)-BACLOFEN” (Zaklady Farmaceutyczne "Polpharma" S.A., priority 2018, dated 2020).
Each block holds one compound with its values, some of them ahead of it.

Key:
[1] = Preliminary solubility study of (R)-Baclofen in 18 solvents; type: physicochemical; details: for Solubility: 40 volume
Description: A preliminary study of (R)-Baclofen solubility was performed using different solvents (18 solvents) in order to design a proper experimental space to obtain or detect a new crystalline form.
Solubility test were performed with 25 mg of (R)-Baclofen in a test tube with screw cap and magnetic stirring. The solvent was added in small portions of 2 volumes (mg/ml) at room temperature up to 40 volumes. After each addition, the sample was stirred for 2-5 minutes.

[2] = pKa of the coformer; cited from earlier work
[3] = Solubility of prior-art crystal forms in water (EP2345634 B1); type: physicochemical; details: 25°C
[4] = Crystalline stability test under accelerated ICH storage conditions (XRPD); type: physicochemical
Description: The expression "crystalline stability" means that no conversion into another crystalline form occurs, as determined by XRPD. […]
Crystalline stability study of the new cocrystals found during the screening was performed under accelerated ICH storage conditions (40°C, 75±5 % RH) for 1 week and 4 weeks. The results are summarized in the Table 16: Table 16: Crystalline stability of cocrystals

Coformer pKa and ΔpKa = type: physicochemical; details: (R)-Baclofen versus coformer
[5] = Chemical stability study under accelerated ICH storage conditions (HPLC); type: physicochemical; details: for Chemical stability (HPLC): 40°C/ 75 ± 5 % RH, during 0, 1, 2 and 4 weeks; for Impurity CA1 (HPLC % a/a): RRT 0.48; for Impurity CA1 (HPLC % a/a) / Impurity A+Impurity CA2 (HPLC % a/a) / Impurity A (HPLC % a/a) / Impurity SA1 (HPLC % a/a) / Impurity B + Impurity FA1 (HPLC % a/a): 40 °C / 75 ± 5 % RH; for Impurity A+Impurity CA2 (HPLC % a/a) / Impurity A (HPLC % a/a): RRT 0.7; for Impurity SA1 (HPLC % a/a): RRT 0.33; for Impurity B + Impurity FA1 (HPLC % a/a): RRT 0.3
Description: Sample concentration : 5mg/5ml in ACN/H2O-0.1 methane sulfonic acid 20:80 Injection Volume: 10 µl; Run Time: 20.0 minutes; Column: […]100, 4.6x150 mm;100A,5µm; Mobile phase: gradient: ACN/H2O- 0.1 methane sulfonic acid 20:80 / ACN (95:5) -(75:25) - (95:5) Column temp.: 40°C; and Flow rate: 1 ml/min.
Samples were taken periodically (0 (start), after 1, 2, and 4 weeks) and analyzed by HPLC.
Retention time of (R)-Baclofen under conditions described in the Section "Measuring instruments, conditions and protocols" above, is about 13 min and the relative retention times (RRT) of known impurities are given below.

Solubility ([1]; Acetone, reflux): Insoluble
Solubility ([1]; Acetonitrile, reflux): Insoluble
Solubility ([1]; DMF, reflux): Soluble
Solubility ([1]; DMSO, reflux): Soluble
Solubility ([1]; Dichloromethane, reflux): Insoluble
Solubility ([1]; Dioxane, reflux): Insoluble
Solubility ([1]; Ethanol, reflux): Insoluble
Solubility ([1]; Ethyl acetate, reflux): Insoluble
Solubility ([1]; Heptane, reflux): Insoluble
Solubility ([1]; Isobutyl acetate, reflux): Insoluble
Solubility ([1]; Isopropyl alcohol, reflux): Insoluble
Solubility ([1]; Methanol, reflux): Insoluble
Solubility ([1]; Methyl isobutyl ketone, reflux): Insoluble
Solubility ([1]; THF, reflux): Insoluble
Solubility ([1]; Tert-butyl methyl ether, reflux): Insoluble
Solubility ([1]; Toluene, reflux): Insoluble
Solubility ([1]; Water, reflux): soluble
Solubility ([1]; cyclohexane, reflux): Insoluble
solubility in water and majority of commonly used organic solvents ([1]; overall conclusion of the solvent study): low solubility
Solubility ([1]; the other tested solvents (samples 4-18), even at reflux temperature): insoluble
Structure (SMILES): NC[C@H](CC(=O)O)c1ccc(Cl)cc1 [(R)-Baclofen, (3R)-4-amino-3-(4-chlorophenyl)butanoic acid]

Structure (SMILES): O=C(O)/C=C/c1ccccc1 [Cinnamic acid, (2E)-3-phenylprop-2-enoic acid]
Coformer [pKa] [2]: Cinnamic acid [pKa 4.10]

solubility according to USP solubility test (descriptive term) [3]: sparingly soluble
Structure (SMILES): NC[C@H](CC(=O)O)c1ccc(Cl)cc1 [Crystal Form B, (3R)-4-amino-3-(4-chlorophenyl)butanoic acid]

Structure (SMILES): COc1cc(/C=C/C(=O)O)ccc1O [Ferulic acid, (E)-3-(4-hydroxy-3-methoxy-phenyl)prop-2-enoic acid]
Coformer [pKa] [2]: Ferulic acid [pKa 4.26]

Structure (SMILES): NCC(CC(=O)O)c1ccc(Cl)cc1.O=C(O)C=Cc1ccccc1 (stereo not shown) [Form III]
Crystalline stability study 40 °C/ 75 ± 5 % RH After 1 week [4]: Stable
Crystalline stability study 40 °C/ 75 ± 5 % RH After 4 weeks [4]: Stable
Crystalline stability study 40 °C/ 75 ± 5 % RH After 4 weeks ([4]; listed as (R)-Baclofen-cinnamic acid cocrystal Form III): stable
ΔpKa (Coformer pKa and ΔpKa): -0.60
Chemical stability (HPLC) [5]: stable
Impurity CA1 (HPLC % a/a) ([5]; week 0): 0.03 % a/a
Impurity CA1 (HPLC % a/a) ([5]; week 1): 0.03 % a/a
Impurity CA1 (HPLC % a/a) ([5]; week 2): 0.03 % a/a
Impurity CA1 (HPLC % a/a) ([5]; week 4): 0.03 % a/a
Impurity A+Impurity CA2 (HPLC % a/a) ([5]; week 0, listed as Cocrystal Form III): 0.04 % a/a
Impurity A+Impurity CA2 (HPLC % a/a) ([5]; week 1, listed as Cocrystal Form III): 0.04 % a/a
Impurity A+Impurity CA2 (HPLC % a/a) ([5]; week 2, listed as Cocrystal Form III): 0.04 % a/a
Impurity A+Impurity CA2 (HPLC % a/a) ([5]; week 4, listed as Cocrystal Form III): 0.04 % a/a

Structure (SMILES): NCC(CC(=O)O)c1ccc(Cl)cc1.NCC(CC(=O)O)c1ccc(Cl)cc1.O=C(O)c1ccccc1 (stereo not shown) [Form II]
Crystalline stability study 40 °C/ 75 ± 5 % RH After 1 week [4]: stable
Crystalline stability study 40 °C/ 75 ± 5 % RH After 4 weeks [4]: Stable
Crystalline stability study 40 °C/ 75 ± 5 % RH After 4 weeks ([4]; listed as (R)-Baclofen-benzoic acid cocrystal Form II): stable
ΔpKa (Coformer pKa and ΔpKa): -0.3
Chemical stability (HPLC) [5]: stable
Impurity A (HPLC % a/a) ([5]; week 0): 0.02 % a/a
Impurity A (HPLC % a/a) ([5]; week 1): 0.02 % a/a
Impurity A (HPLC % a/a) ([5]; week 2): 0.02 % a/a
Impurity A (HPLC % a/a) ([5]; week 4): 0.02 % a/a

Structure (SMILES): NCC(CC(=O)O)c1ccc(Cl)cc1.O=C(O)C=Cc1ccccc1 (stereo not shown) [Form IV]
Crystalline stability study 40 °C/ 75 ± 5 % RH After 4 weeks ([4]; listed as (R)-Baclofen-cinnamic acid cocrystal Form IV): stable
Impurity A+Impurity CA2 (HPLC % a/a) ([5]; week 0, listed as Cocrystal Form IV): 0.03 % a/a
Impurity A+Impurity CA2 (HPLC % a/a) ([5]; week 1, listed as Cocrystal Form IV): 0.03 % a/a
Impurity A+Impurity CA2 (HPLC % a/a) ([5]; week 2, listed as Cocrystal Form IV): 0.03 % a/a
Impurity A+Impurity CA2 (HPLC % a/a) ([5]; week 4, listed as Cocrystal Form IV): 0.03 % a/a

Structure (SMILES): COc1cc(C=O)ccc1O.NCC(CC(=O)O)c1ccc(Cl)cc1.NCC(CC(=O)O)c1ccc(Cl)cc1 (stereo not shown) [Form IX]
Crystalline stability study 40 °C/ 75 ± 5 % RH After 1 week [4]: Unstable
Crystalline stability study 40 °C/ 75 ± 5 % RH After 4 weeks [4]: Unstable
ΔpKa (Coformer pKa and ΔpKa): -3.70

Structure (SMILES): NCC(CC(=O)O)c1ccc(Cl)cc1.O=C(O)c1ccccc1O (stereo not shown) [Form VIII]
Crystalline stability study 40 °C/ 75 ± 5 % RH After 1 week [4]: Stable
Crystalline stability study 40 °C/ 75 ± 5 % RH After 4 weeks [4]: Stable
Crystalline stability study 40 °C/ 75 ± 5 % RH After 4 weeks ([4]; listed as (R)-Baclofen-salicylic acid cocrystal Form VIII): stable
ΔpKa (Coformer pKa and ΔpKa): 0.83
Chemical stability (HPLC) [5]: stable
Impurity SA1 (HPLC % a/a) ([5]; week 0): 0.05 % a/a
Impurity SA1 (HPLC % a/a) ([5]; week 1): 0.05 % a/a
Impurity SA1 (HPLC % a/a) ([5]; week 2): 0.05 % a/a
Impurity SA1 (HPLC % a/a) ([5]; week 4): 0.05 % a/a
Impurity A (HPLC % a/a) ([5]; week 0): 0.04 % a/a
Impurity A (HPLC % a/a) ([5]; week 1): 0.04 % a/a
Impurity A (HPLC % a/a) ([5]; week 2): 0.04 % a/a
Impurity A (HPLC % a/a) ([5]; week 4): 0.04 % a/a

Structure (SMILES): NCC(CC(=O)O)c1ccc(Cl)cc1.NCC(CC(=O)O)c1ccc(Cl)cc1.O=C(O)C=CC(=O)O (stereo not shown) [Form VII]
Crystalline stability study 40 °C/ 75 ± 5 % RH After 1 week [4]: Unstable
Crystalline stability study 40 °C/ 75 ± 5 % RH After 4 weeks [4]: Unstable
ΔpKa (Coformer pKa and ΔpKa): 0.77

Structure (SMILES): COc1cc(C=CC(=O)O)ccc1O.NCC(CC(=O)O)c1ccc(Cl)cc1 [Form XII]
Crystalline stability study 40 °C/ 75 ± 5 % RH After 1 week [4]: Stable
Crystalline stability study 40 °C/ 75 ± 5 % RH After 4 weeks [4]: Stable
Crystalline stability study 40 °C/ 75 ± 5 % RH After 4 weeks ([4]; listed as (R)-Baclofen-ferulic acid cocrystal Form XII): stable
Chemical stability (HPLC) [5]: stable
Impurity A+Impurity CA2 (HPLC % a/a) ([5]; Form XII table, week 0): 0.05 % a/a
Impurity A+Impurity CA2 (HPLC % a/a) ([5]; Form XII table, week 1): 0.04 % a/a
Impurity A+Impurity CA2 (HPLC % a/a) ([5]; Form XII table, week 2): 0.05 % a/a
Impurity A+Impurity CA2 (HPLC % a/a) ([5]; Form XII table, week 4): 0.05 % a/a
Impurity B + Impurity FA1 (HPLC % a/a) ([5]; week 0): 0.07 % a/a
Impurity B + Impurity FA1 (HPLC % a/a) ([5]; week 1): 0.07 % a/a
Impurity B + Impurity FA1 (HPLC % a/a) ([5]; week 2): 0.08 % a/a
Impurity B + Impurity FA1 (HPLC % a/a) ([5]; week 4): 0.07 % a/a

Structure (SMILES): COc1cc(C=O)ccc1O [Vanillin]
Coformer [pKa] [2]: Vanillin [pKa 7.5]
